Source: patent US5470877A, “Uses of perillic acid methyl ester” (Wisconsin Alumni Research Foundation, priority 1994, dated 1995)
Entries after “also recorded” stand apart in the source; their conditions may differ.

What was measured:
[1] = tested on: rat mammary carcinoma; experiment: Comparison of dietary perillyl alcohol and perillic acid methyl ester as inducers of rat mammary carcinoma regression; type: in vivo, Wistar-Furth rat; conditions: for no regression (tumors) / no response / partial regression >1/2 original diameter (%) / partial regression >1/2 original diameter (tumors) / small regression response / some growth of tumor: 6 weeks
Protocol: Inbred female Wistar-Furth rats were given 50 mg/kg DMBA at 50-55 days of age. Upon development of a mammary tumor with the largest diameter≥10 mm, the rat was assigned to 0.5% perillic acid methyl ester diet and fed ad libitum. The 0.5% perillic acid methyl ester diet (weight compound/weight ground Teklad rat/mouse 4% meal/chow) was prepared fresh every 7-10 days. Fresh diet was given to rats daily. All rats were weighed and palpated weekly. The study was terminated at 6 weeks after initial diet administration. The following tumor regression data was acquired:
We compared the effects of PAME and POH in terms of their ability to regress rat mammary carcinomas. Table 8 records our comparison. In summary, a 0.5% PAME diet was effective, while a 0.5% POH diet was only 10% effective. Diets of 2% POH were roughly 64-70% effective. While 2% POH is tolerated by a mammal, on a practical level PAME is preferred because a lower dose is sufficient.

[2] = tested on: 21-26 kDa proteins; experiment: Protein isoprenylation inhibition in M600B human mammary epithelial cells; conditions: 3 mM
Protocol: To test whether a specific monoterpene affects isoprenylation of proteins in cells, cell extracts were incubated with a radioactive isoprene precursor and 0-5 mM of the test monoterpene and then subjected to SDS-PAGE. Because they carried a radioactive label, isoprenylated proteins were visualized by fluorography. As a control, cells were incubated without the monoterpene.
For both isoprenylation and cell growth assays, the monoterpenes were mixed with prewarmed (37° C.) medium containing 10% calf serum, and then the monoterpene-containing medium was added to cells. The relative effects of various monoterpenes on protein isoprenylation were compared by comparison of the relative intensity of bands on fluorograms from [^14 C]-mevalonate-labelled cells treated with each monoterpene.
Some fluorograms were analyzed further by densitometry. Where indicated, gels were sliced, dissolved at 50° C. for 3 hours in 0.5 ml of water+0.5 ml of Solvable (Amersham), and then analyzed by scintillation spectrometry in 10 ml of Atom light (Amersham) mixture.
Samples from each cell line were then analyzed on the same gel.

[3] = tested on: human cancer cell lines; experiment: Growth of human cancer cell lines (NCI Developmental Therapeutics Program, FIG. 5); type: cell-based; conditions: various concentrations
Protocol: Various concentrations of perillyl alcohol caused the regression of a number of human cancer cell lines. FIG. 5 is a set of diagrams showing the effects of perillyl alcohol on different cancer cell lines. These experiments were conducted by the National Cancer Institute Developmental Therapeutics Program.

[4] = tested on: NIH3T3 cells; experiment: NIH3T3 cell growth inhibition (FIG. 3); type: cell-based, mouse; conditions: NIH3T3 (murine) cells
Protocol: NIH3T3 (mouse embryo) cells were obtained from the American Type Culture Collection and were grown in Dulbecco's modified Eagle's medium supplemented with 10% calf serum. M600B immortalized human mammary epithelial cells (Stampfer, M.R., 1985, J. Tissue Culture Methods 9:107-115) were, obtained from Dr. Martha Stampfer and were grown in supplemented HCDB 170 medium (Hammond, et al. (1984) Proc. Natl. Acad. Sci U.S.A. 81:5435-5439), as described previously (Stampfer, et al. (1985) Proc. Natl. Acad. Sci U.S.A. 82:2394-2398; Eldridge, et al. (1989) Cancer Res. 49:4326-4331).
All cells were maintained in 100-mm dishes at 37° C. in a humidified 5% CO2 atmosphere. Viable cells were distinguished from nonviable cells by counting azure II/methylene blue-stained colonies 10 days after the cells were plated at a density of 100 cells per dish. Trypan blue exclusion was measured by incubating cells for 1 min with one drop of trypan blue per 10 ml of cells. Viable (colorless) and nonviable (blue) cells were then counted on a hemocytometer.
We examined the effect of several of the terpenes on certain types of cell growth. […] Additionally, growth of HT29 (human colon adenocarcinoma) cells was inhibited by 80% by 1 mM perillyl alcohol.

[5] = Plasma metabolite identification and quantitation in rats; type: in vivo, Wistar-Furth rat; conditions: for DHPA (% total) / DHPAME (% total) / LIM/POH (% total) / PA (% total) / PAME (% total) / mM LIM/POH: plasma
Protocol: Control animals received oil alone. At the chosen time points, rats were anesthetized with ether and blood was collected into heparinized tubes (Heparin (Sigma, Grade II), at 20 mg/ml in 0.9% saline). Plasma was removed following centrifugation and stored at -20° C.
For quantitation of chronic plasma metabolite levels of perillyl alcohol, female WF rats were housed individually and fed fresh diet daily. The afternoon before blood collection, all rats were given approximately 20 grams of the appropriate diet and allowed to eat ad. libitum for 18 hours. Food consumption data was determined the next morning and the rats were bled within 2 hours following food removal.
Briefly, 5 μl of a 10 mM solution of perillaldehyde was added to 50 μl plasma as an internal standard for quantitation. The plasma was mixed with an equal volume of n-butanol:acetonitrile (1:1, v/v), after which another volume of saturated potassium phosphate was added. After vortexing, the samples were centrifuged and the organic layer removed from the top.
Plasma extracts were analyzed using a Hewlett-Packard 5891 gas chromatograph equipped with a flame-ionization detector or a Hewlett-Packard 5890 chromatograph equipped with a 5971A mass-selective detector, both with 30 m Supelco SPB-5 columns. The temperature program was 90° C. for 4 minutes, increasing by 10° C./minute, followed by 15 minutes at 275° C. The split ratio was 1:10 and the linear velocity was 1.1 ml/minute. Standard curves were generated by adding 5 μl rat plasma. Standards were then extracted and analyzed by capillary gas chromatography. The ratio of the terpene peak area/perillaldehyde peak area versus the concentration of terpene in the sample was plotted.

[6] = 0.5% POH diet, first comparison
[7] = 1.0% POH diet, first comparison
[8] = 1.5% POH diet, first comparison
[9] = 2.0% POH diet, first comparison
[10] = 2.0% POH diet, second comparison
[11] = chronic week 3, 10% LIM or 2% POH diet
[12] = chronic week 5, 10% LIM or 2% POH diet
[13] = chronic week 10, 10% LIM or 2% POH diet

## C=C(C)[C@@H]1CC=C(CO)CC1 [perillyl alcohol]
[1]; [6]
  no regression (tumors): 18/20
  no response: 1/20
  partial regression >1/2 original diameter (%): 10%
  partial regression >1/2 original diameter (tumors): 2/20
  small regression response: 2/20
  some growth of tumor: 15/20
[1]; [7]
  no regression (tumors): 15/20
  no response: 2/20
  partial regression >1/2 original diameter (%): 25%
  partial regression >1/2 original diameter (tumors): 5/20
  small regression response: 2/20
  some growth of tumor: 11/20
[1]; [8]
  no regression (tumors): 15/21
  no response: 7/21
  partial regression >1/2 original diameter (%): 29%
  partial regression >1/2 original diameter (tumors): 6/21
  small regression response: 7/21
  some growth of tumor: 4/21
[1]; [9]
  no regression (tumors): 6/20
  no response: 1/20
  partial regression >1/2 original diameter (%): 70%
  partial regression >1/2 original diameter (tumors): 14/20
  small regression response: 2/20
  some growth of tumor: 3/20
[1]; [10]
  no regression (tumors): 4/11
  no response: 2/11
  partial regression >1/2 original diameter (%): 64%
  partial regression >1/2 original diameter (tumors): 7/11
  small regression response: 1/11
  some growth of tumor: 1/11
[1]; 2% POH diets
  effectiveness of diet (%): 64-70%
[1]; rats fed PAME or POH diet
  weight loss: did experience weight loss
[1]; rats fed a 1% diet
  regression rate: 55%
[2]
  isoprenylation of 21-26 kDa proteins: inhibited significantly
[3]
  effect on human cancer cell growth: inhibited cancer cell growth
[4]
  inhibition of cell growth: significantly inhibited cell growth in a dose-dependent manner
[5]; acute gavage, any time point including 30 minutes
  parent detection in plasma: not detected at any time point including 30 minutes post-gavage
[5]; acute gavage, rat
  major metabolite detected: perillic acid
[5]; acutely administered, rat
  perillic and dihydroperillic acids in plasma: detectable at 24 hours post-administration
[5]; chronically fed rats
  parent compound in plasma: Neither limonene nor perillyl alcohol was detected
[5]; acute 1 g/kg, 4 hour
  DHPA (% total): 5 % total
  DHPAME (% total): < 1 % total
  LIM/POH (% total): 0 % total
  PA (% total): 71 % total
  PAME (% total): 24 % total
[5]; acute 1 g/kg, 4 hour, mean ± SEM
  mM LIM/POH: 0.00 ± 0.00 mM
[5]; [11]
  DHPA (% total): 19 % total
  DHPAME (% total): 2 % total
  LIM/POH (% total): 0 % total
  PA (% total): 69 % total
  PAME (% total): 10 % total
  mM LIM/POH: 0 mM
[5]; [12]
  DHPA (% total): 25 % total
  DHPAME (% total): 3 % total
  LIM/POH (% total): 0 % total
  PA (% total): 62 % total
  PAME (% total): 10 % total
  mM LIM/POH: 0 mM
[5]; [13]
  DHPA (% total): 28 % total
  DHPAME (% total): 4 % total
  LIM/POH (% total): 0 % total
  PA (% total): 59 % total
  PAME (% total): 10 % total
  mM LIM/POH: 0 mM
[5]; rat
  rate of conversion to metabolites: rapidly metabolized to the same metabolites as limonene; also recorded: more rapidly converted to metabolites than limonene
[5]; rat, 1 g/kg gavage, 4 hours
  major plasma metabolites: perillic acid and dihydroperillic acid
  minor plasma metabolites: minor levels of these acids' methyl esters
